Experimental data: publication doi:10.1101/2023.11.24.568596v1 (biorxiv, 2023)

Key:
Conditions in all cases: binder
[1] = biological target: Wnk1 (Homo sapiens, UniProt Q9H4A3)
[2] = biological target: DAPK3 (Homo sapiens, UniProt O43293)
[3] = biological target: TAF1 (Homo sapiens, UniProt P21675)
[4] = biological target: HIPK2 (Homo sapiens, UniProt Q9H2X6)
[5] = biological target: T1, MAP2K7 (Homo sapiens, UniProt O14733)
T1 sequence (O14733 1-419): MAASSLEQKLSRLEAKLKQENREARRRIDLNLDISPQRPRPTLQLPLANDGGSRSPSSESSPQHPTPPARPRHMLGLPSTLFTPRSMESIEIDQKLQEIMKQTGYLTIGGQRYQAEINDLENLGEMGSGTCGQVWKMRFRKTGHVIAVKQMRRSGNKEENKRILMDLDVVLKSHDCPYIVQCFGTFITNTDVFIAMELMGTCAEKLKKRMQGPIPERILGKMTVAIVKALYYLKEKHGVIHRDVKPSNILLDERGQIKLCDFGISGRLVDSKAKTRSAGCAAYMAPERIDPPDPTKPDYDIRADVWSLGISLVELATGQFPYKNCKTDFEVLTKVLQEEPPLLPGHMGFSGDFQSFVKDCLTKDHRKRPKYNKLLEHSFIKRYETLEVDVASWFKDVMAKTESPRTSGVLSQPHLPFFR

[6] = biological target: T2, TLK1 (Homo sapiens, UniProt Q9UKI8)
T2 sequence (Q9UKI8 1-766): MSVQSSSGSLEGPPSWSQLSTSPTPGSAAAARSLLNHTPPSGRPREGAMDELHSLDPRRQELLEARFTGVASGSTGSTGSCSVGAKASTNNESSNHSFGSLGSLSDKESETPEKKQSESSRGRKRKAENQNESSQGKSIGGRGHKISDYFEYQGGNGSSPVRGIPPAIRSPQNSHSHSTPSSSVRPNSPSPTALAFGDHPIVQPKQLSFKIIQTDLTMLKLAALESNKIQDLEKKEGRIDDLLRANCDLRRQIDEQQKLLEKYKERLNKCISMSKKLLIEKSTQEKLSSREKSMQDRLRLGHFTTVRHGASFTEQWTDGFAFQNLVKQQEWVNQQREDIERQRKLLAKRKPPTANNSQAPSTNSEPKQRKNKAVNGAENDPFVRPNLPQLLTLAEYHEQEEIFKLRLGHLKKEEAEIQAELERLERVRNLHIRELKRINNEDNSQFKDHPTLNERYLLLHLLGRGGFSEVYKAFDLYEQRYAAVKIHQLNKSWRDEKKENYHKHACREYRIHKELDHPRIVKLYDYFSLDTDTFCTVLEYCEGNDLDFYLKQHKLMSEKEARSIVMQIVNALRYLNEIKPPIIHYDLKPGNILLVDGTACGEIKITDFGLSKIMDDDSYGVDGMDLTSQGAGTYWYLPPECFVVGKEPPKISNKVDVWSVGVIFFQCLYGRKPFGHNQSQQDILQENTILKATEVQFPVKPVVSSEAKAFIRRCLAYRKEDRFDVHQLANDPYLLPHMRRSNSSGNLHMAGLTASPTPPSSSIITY

[7] = biological target: STLK3 (Homo sapiens, UniProt Q9UEW8)
[8] = biological target: SLK (Homo sapiens, UniProt Q9H2G2)
Chain of SLK (Q9H2G2 whole entry): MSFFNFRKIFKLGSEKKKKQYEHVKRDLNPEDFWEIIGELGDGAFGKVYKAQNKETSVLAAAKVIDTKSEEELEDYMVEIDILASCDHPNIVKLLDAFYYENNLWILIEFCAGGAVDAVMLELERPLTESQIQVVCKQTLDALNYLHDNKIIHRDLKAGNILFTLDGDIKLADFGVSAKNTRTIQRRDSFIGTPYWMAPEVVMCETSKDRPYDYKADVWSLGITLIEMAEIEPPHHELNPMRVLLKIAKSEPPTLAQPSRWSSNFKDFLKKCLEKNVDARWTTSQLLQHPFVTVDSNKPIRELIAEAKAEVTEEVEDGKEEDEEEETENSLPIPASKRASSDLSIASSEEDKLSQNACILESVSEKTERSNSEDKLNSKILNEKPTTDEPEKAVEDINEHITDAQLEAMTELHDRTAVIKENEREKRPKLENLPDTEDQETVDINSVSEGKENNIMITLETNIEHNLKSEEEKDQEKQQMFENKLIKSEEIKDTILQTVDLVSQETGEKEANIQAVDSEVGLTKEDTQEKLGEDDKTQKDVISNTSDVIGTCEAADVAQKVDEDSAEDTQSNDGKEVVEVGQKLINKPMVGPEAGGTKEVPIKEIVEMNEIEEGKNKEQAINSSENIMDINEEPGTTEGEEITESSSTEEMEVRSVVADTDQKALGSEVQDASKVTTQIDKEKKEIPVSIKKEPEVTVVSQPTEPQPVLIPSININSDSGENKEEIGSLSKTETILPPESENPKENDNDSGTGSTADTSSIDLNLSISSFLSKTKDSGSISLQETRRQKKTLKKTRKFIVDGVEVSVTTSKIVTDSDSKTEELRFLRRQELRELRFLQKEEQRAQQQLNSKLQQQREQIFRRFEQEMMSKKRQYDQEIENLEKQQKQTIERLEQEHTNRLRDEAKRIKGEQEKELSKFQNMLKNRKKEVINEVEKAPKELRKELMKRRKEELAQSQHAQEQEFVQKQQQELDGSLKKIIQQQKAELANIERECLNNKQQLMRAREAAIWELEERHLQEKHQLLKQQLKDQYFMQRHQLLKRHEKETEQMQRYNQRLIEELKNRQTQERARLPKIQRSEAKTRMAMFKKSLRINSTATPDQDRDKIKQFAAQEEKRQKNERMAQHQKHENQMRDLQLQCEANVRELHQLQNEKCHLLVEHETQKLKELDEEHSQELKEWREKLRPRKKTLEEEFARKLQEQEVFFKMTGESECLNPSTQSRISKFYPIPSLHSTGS

[9] = biological target: SRPK1 (Homo sapiens, UniProt Q96SB4)
[10] = biological target: T3, TTK (Homo sapiens, UniProt P33981)
T3 sequence (P33981 1-857): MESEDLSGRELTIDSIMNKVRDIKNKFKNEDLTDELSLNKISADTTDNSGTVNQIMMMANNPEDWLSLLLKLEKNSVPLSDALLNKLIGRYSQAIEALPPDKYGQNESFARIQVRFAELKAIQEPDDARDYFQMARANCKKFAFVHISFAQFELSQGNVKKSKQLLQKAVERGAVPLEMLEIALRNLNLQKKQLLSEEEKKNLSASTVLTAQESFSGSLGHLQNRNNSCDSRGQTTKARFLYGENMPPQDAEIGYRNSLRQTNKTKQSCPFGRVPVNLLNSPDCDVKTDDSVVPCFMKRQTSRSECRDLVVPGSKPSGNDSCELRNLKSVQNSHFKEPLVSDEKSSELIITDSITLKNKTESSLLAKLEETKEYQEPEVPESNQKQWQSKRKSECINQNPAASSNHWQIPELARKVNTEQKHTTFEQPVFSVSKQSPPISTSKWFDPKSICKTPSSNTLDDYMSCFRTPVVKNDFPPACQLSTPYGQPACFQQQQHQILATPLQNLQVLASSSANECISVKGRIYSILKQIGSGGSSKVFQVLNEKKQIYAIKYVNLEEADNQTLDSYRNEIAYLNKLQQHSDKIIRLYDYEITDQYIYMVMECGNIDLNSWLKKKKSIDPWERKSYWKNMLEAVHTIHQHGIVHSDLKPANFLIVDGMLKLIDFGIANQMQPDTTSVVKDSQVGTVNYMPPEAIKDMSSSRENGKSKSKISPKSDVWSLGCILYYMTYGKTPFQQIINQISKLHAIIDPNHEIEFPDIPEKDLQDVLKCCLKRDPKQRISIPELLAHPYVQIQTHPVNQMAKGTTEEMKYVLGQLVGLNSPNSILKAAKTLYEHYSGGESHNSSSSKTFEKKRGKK

Chain of HIPK2 (Q9H2X6 whole entry): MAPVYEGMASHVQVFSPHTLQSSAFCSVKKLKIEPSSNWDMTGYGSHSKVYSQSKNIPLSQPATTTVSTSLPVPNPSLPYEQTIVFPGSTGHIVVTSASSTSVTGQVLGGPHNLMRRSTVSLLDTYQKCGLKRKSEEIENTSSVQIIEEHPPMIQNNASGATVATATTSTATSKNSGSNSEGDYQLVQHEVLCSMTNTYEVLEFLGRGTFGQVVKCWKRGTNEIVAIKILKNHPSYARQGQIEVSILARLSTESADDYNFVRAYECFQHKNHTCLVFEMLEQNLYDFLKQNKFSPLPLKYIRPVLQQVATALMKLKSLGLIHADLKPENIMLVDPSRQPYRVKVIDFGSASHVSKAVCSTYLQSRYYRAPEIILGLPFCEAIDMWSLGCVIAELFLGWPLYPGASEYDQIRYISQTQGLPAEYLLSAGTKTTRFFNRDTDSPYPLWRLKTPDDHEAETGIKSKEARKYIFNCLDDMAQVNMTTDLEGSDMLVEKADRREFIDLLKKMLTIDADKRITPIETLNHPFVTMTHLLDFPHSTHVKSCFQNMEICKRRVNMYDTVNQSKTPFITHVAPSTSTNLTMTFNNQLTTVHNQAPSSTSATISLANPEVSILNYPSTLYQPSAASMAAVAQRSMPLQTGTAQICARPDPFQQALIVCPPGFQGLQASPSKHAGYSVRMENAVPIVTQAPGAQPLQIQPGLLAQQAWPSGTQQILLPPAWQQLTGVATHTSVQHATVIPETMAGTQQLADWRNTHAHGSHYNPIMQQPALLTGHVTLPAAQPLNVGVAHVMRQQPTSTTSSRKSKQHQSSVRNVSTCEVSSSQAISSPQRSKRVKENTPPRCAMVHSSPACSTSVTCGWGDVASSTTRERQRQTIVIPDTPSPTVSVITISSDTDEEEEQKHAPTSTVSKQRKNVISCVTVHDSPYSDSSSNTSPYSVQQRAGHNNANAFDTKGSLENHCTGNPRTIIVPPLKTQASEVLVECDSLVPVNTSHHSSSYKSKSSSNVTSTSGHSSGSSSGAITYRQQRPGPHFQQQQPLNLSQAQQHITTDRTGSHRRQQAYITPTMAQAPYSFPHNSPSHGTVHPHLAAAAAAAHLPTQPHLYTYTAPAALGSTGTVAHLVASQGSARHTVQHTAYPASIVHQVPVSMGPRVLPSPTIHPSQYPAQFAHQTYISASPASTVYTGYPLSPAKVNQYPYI
Chain of Wnk1 (Q9H4A3 whole entry): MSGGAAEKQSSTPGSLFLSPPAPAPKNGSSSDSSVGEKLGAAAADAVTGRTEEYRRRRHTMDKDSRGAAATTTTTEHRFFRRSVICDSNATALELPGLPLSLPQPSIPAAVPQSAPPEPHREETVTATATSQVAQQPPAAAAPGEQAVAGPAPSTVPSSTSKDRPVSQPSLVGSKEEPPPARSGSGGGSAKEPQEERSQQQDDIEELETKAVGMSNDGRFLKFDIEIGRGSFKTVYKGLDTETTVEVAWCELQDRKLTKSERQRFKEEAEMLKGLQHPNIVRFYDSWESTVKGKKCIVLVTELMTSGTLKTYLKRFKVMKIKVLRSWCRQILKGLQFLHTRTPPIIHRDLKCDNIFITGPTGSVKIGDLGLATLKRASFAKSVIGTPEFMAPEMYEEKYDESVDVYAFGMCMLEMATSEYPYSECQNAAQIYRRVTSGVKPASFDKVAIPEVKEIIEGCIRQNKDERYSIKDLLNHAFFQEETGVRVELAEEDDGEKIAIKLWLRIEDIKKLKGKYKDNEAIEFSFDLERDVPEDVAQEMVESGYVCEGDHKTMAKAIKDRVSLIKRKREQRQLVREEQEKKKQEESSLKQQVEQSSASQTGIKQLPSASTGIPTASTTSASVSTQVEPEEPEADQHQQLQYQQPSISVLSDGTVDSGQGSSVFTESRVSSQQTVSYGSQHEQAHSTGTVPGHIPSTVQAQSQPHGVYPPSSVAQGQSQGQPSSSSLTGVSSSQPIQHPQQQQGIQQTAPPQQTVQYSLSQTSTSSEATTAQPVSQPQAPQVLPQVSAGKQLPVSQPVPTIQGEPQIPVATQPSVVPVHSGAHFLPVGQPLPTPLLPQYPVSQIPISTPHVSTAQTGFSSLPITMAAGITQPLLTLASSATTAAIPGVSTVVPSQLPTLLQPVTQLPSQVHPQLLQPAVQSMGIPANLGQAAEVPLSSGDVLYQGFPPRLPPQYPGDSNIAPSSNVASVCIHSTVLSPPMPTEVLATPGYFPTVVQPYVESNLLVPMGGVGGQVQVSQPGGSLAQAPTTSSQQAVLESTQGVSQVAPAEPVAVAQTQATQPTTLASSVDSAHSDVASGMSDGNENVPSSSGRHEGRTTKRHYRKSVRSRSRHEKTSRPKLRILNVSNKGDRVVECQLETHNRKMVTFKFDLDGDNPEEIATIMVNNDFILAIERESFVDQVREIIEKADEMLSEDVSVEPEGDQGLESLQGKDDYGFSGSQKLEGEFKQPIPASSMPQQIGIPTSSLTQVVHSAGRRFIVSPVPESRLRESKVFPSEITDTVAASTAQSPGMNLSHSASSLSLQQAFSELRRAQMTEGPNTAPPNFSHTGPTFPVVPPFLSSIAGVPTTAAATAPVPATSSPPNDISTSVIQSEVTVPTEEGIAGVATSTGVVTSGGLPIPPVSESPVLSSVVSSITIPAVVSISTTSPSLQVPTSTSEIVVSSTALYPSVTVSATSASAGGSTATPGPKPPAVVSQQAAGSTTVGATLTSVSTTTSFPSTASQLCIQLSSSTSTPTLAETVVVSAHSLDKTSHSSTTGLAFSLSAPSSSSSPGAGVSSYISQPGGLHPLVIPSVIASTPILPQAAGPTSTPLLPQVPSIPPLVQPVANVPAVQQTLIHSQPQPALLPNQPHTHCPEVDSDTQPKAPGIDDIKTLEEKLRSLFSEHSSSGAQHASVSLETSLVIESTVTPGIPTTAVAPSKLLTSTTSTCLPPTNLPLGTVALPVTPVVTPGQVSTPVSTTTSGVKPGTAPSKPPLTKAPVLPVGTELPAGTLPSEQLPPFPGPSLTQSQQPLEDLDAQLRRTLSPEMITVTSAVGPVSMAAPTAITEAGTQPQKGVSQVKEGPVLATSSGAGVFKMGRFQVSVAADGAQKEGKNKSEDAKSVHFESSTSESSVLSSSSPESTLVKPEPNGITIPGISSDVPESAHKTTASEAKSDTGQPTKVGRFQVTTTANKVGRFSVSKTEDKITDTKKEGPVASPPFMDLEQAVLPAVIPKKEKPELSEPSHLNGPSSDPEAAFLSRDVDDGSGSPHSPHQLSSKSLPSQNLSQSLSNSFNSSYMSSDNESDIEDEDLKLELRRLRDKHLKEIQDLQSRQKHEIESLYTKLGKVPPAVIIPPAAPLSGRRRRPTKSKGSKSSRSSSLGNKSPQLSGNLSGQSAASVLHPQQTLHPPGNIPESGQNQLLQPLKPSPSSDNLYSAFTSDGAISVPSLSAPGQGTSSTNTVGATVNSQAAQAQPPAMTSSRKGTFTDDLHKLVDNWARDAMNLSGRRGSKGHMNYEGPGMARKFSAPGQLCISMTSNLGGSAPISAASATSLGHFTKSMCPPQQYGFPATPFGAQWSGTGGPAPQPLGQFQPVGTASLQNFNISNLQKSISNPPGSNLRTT

Structure (SMILES): Cc1cccc(-c2ccc(-c3cc4cnc(Nc5ccc(C)c(O)c5)nc4n(CCCCN)c3=O)c(Cl)c2)n1 [compound 32, 8-(4-Aminobutyl)-6-(2-chloro-4-(6-methylpyridin-2-yl)phenyl)-2-((3-hydroxy-4-methylphenyl)amino)pyrido[2,3-d]pyrimidin-7(8H)-one]
- ΔTm 32 [1]: 3.5 °C
- ΔTm 32 [2]: 2.6 °C
- ΔTm 32 [3]: 0.5 °C
- ΔTm 32 [4]: 2.6 °C
- ΔTm 32 [5]: 7.3 °C
- ΔTm 32 [6]: -0.8 °C
- ΔTm 32 [7]: 16.6 °C
- ΔTm 32 [8]: 7.8 °C
- ΔTm 32 [9]: 0.4 °C
- ΔTm 32 [10]: 2.2 °C

Structure (SMILES): Cc1cccc(-c2ccc(-c3cc4cnc(NCCCc5ccc(N)cc5)nc4n(CCCCN)c3=O)c(Cl)c2)n1 [compound 25, 8-(4-Aminobutyl)-2-((3-(4-aminophenyl)propyl)amino)-6-(2-chloro-4-(6-methylpyridin-2-yl)phenyl)pyrido[2,3-d]pyrimidin-7(8H)-one]
- ΔTm 25 [1]: 2.7 °C
- ΔTm 25 [3]: -0.1 °C
- ΔTm 25 [6]: -0.9 °C
- ΔTm 25 [7]: 13.0 °C
- ΔTm 25 [8]: 5.0 °C
- ΔTm 25 [9]: 0.1 °C
- ΔTm 25 [10]: 1.8 °C

Structure (SMILES): CNc1ncc2cc(-c3ccc(-c4cccc(C)n4)cc3Cl)c(=O)n(C[C@H]3CC[C@H](N)CC3)c2n1 [compound 23, 23]
- ΔTm 23 [1]: 2.1 °C
- ΔTm 23 [3]: -0.5 °C
- ΔTm 23 [6]: 0.6 °C
- ΔTm 23 [7]: 3.3 °C
- ΔTm 23 [8]: 8.3 °C
- ΔTm 23 [9]: -0.5 °C
- ΔTm 23 [10]: 3.5 °C

Structure (SMILES): Cc1cccc(-c2ccc(-c3cc4cnc(Nc5ccc(O)cc5)nc4n(CCCCN)c3=O)c(Cl)c2)n1 [compound 31, 8-(4-Aminobutyl)-6-(2-chloro-4-(6-methylpyridin-2-yl)phenyl)-2-((4-hydroxyphenyl)amino) pyrido[2,3-d]pyrimidin-7(8H)-one]
- ΔTm 31 [1]: 3.1 °C
- ΔTm 31 [2]: 2.0 °C
- ΔTm 31 [3]: -1.0 °C
- ΔTm 31 [4]: 2.6 °C
- ΔTm 31 [5]: 8.9 °C
- ΔTm 31 [6]: -1.6 °C
- ΔTm 31 [7]: 16.6 °C
- ΔTm 31 [8]: 7.7 °C
- ΔTm 31 [9]: 0.3 °C
- ΔTm 31 [10]: 5.1 °C

Structure (SMILES): CNc1ncc2cc(-c3ccc(-c4cccc(C)n4)cc3Cl)c(=O)n(CCCCN)c2n1 [compound 20, MRLW5]
- ΔTm MRLW5 (20) [1]: 1.7 °C
- ΔTm MRLW5 (20) [3]: 0.0 °C
- ΔTm MRLW5 (20) [6]: 0.6 °C
- ΔTm MRLW5 (20) [7]: 1.8 °C
- ΔTm MRLW5 (20) [8]: 9.1 °C
- ΔTm MRLW5 (20) [9]: -0.2 °C
- ΔTm MRLW5 (20) [10]: 2.7 °C

Structure (SMILES): CNc1ncc2cc(-c3ccc(-c4cccc(C)n4)cc3Cl)c(=O)n(CCC3CCNCC3)c2n1 [compound 22, 6-(2-Chloro-4-(6-methylpyridin-2-yl)phenyl)-2-(methylamino)-8-(2-(piperidin-4-yl)ethyl)pyrido[2,3-d]pyrimidin-7(8H)-one]
- ΔTm 22 [1]: 1.5 °C
- ΔTm 22 [3]: 0.3 °C
- ΔTm 22 [6]: 0.2 °C
- ΔTm 22 [7]: -3.0 °C
- ΔTm 22 [8]: 3.9 °C
- ΔTm 22 [9]: -0.2 °C
- ΔTm 22 [10]: 3.7 °C

Structure (SMILES): Cc1cccc(-c2ccc(-c3cc4cnc(Nc5cc(C(F)(F)F)ccc5C)nc4n(CCCCN)c3=O)c(Cl)c2)n1 [compound 28, 8-(4-Aminobutyl)-6-(2-chloro-4-(6-methylpyridin-2-yl)phenyl)-2-((2-methyl-5-(trifluoromethyl)phenyl)amino)pyrido[2,3-d]pyrimidin-7(8H)-one]
- ΔTm 28 [1]: 2.8 °C
- ΔTm 28 [2]: 1.0 °C
- ΔTm 28 [3]: 0.4 °C
- ΔTm 28 [4]: -0.5 °C
- ΔTm 28 [5]: 2.9 °C
- ΔTm 28 [6]: -1.8 °C
- ΔTm 28 [7]: 10.4 °C
- ΔTm 28 [8]: 4.5 °C
- ΔTm 28 [9]: 0.1 °C
- ΔTm 28 [10]: -11.0 °C

Structure (SMILES): Cc1cccc(-c2ccc(-c3cc4cnc(NC(CO)CO)nc4n(CCCCN)c3=O)c(Cl)c2)n1 [compound 24, 8-(4-Aminobutyl)-6-(2-chloro-4-(6-methylpyridin-2-yl)phenyl)-2-((1,3-dihydroxypropan-2-yl)amino)pyrido[2,3-d]pyrimidin-7(8H)-one]
- ΔTm MR24 (24) [1]: 0.2 °C
- ΔTm MR24 (24) [3]: -0.1 °C
- ΔTm MR24 (24) [6]: -1.8 °C
- ΔTm MR24 (24) [7]: 9.1 °C
- ΔTm MR24 (24) [8]: 1.9 °C
- ΔTm MR24 (24) [9]: -0.1 °C
- ΔTm MR24 (24) [10]: -3.0 °C

Structure (SMILES): Cc1cccc(-c2ccc(-c3cc4cnc(NCCCN5CCOCC5)nc4n(CCCCN)c3=O)c(Cl)c2)n1 [compound 26, MR26]
- ΔTm MR26 (26) [1]: 1.0 °C
- ΔTm MR26 (26) [3]: 0.0 °C
- ΔTm MR26 (26) [6]: -1.6 °C
- ΔTm MR26 (26) [7]: 10.4 °C
- ΔTm MR26 (26) [8]: 2.3 °C
- ΔTm MR26 (26) [9]: 0.1 °C
- ΔTm MR26 (26) [10]: -0.2 °C
